Source: ChEMBL document CHEMBL5053528, “Discovery of 2-(Ortho-Substituted Benzyl)-Indole Derivatives as Potent and Orally Bioavailable RORγ Agonists with Antitumor Activity” (J Med Chem, 2021)

How the values were obtained:
[1] = Oral bioavailability in dog; type: ADME, organism-based, Canis lupus familiaris; conditions: in vivo
Mus musculus [2] = test: Toxicity in C57BL/6 mouse injected with mouse MC38 cells assessed as change in body weight at 10 mg/kg, po administered once daily for 25 days in combination with anti-mouse-PD1 monoclonal antibody at 5 mg/kg, ip and measured twice a week; type: organism-based, MC-38; conditions: in vivo, 600 h, time 25 day
Mus musculus [3] = test: Toxicity in C57BL/6 mouse infected with mouse MC38 cells assessed as change in body weight at 10 mg/kg, po administered once daily for 25 days and measured twice a week; type: organism-based, MC-38; conditions: in vivo, 600 h, time 25 day
[4] = Effects of compound in IFNgamma production in CD3/CD28-stimulated C57BL/6 mouse tumor lymphocytes assessed as increase in IFNgamma production at 10 mg/kg in combination with anti-mouse PD1 monoclonal antibody at 5 mg/kg by ELISA (Rvb= 1467 +/- 878 pg/ml); type: functional, Lymphocyte
[5] = Cmax in dog at 2 mg/kg, po; type: ADME, organism-based, Canis lupus familiaris; design: dose 2 mg/kg, route po; conditions: in vivo
[6] = Volume of distribution in dog at 0.5 mg/kg, iv; type: ADME, organism-based, Canis lupus familiaris; conditions: in vivo
[7] = Half life in mouse at 1 mg/kg, iv; type: ADME, organism-based; conditions: in vivo, iv, 1 mg/kg
[8] = Effects of compound in IFNgamma production in CD3/CD28-stimulated C57BL/6 mouse tumor lymphocytes assessed as increase in IFNgamma production at 10 mg/kg by ELISA (Rvb= 262 +/- 81 pg/ml); type: functional, Lymphocyte
[9] = AUC (0 to t) in mouse at 2 mg/kg, po; type: ADME, organism-based; design: dose 2 mg/kg, route po; conditions: in vivo
[10] = Clearance in rat at 1 mg/kg, iv; type: ADME, organism-based; conditions: in vivo
[11] = Volume of distribution in mouse at 1 mg/kg, iv; type: ADME, organism-based; conditions: in vivo, iv, 1 mg/kg
[12] = Cmax in mouse at 2 mg/kg, po; type: ADME, organism-based; design: dose 2 mg/kg, route po; conditions: in vivo
[13] = AUC (0 to t) in rat at 2 mg/kg, po; type: ADME, organism-based; design: dose 2 mg/kg, route po; conditions: in vivo
[14] = Half life in dog at 2 mg/kg, po; type: ADME, organism-based, Canis lupus familiaris; conditions: in vivo
[15] = Cmax in rat at 2 mg/kg, po; type: ADME, organism-based; design: dose 2 mg/kg, route po; conditions: in vivo
MC-38 [16] = test: Antitumor activity against mouse MC38 cells injected C57BL/6 mouse syngenic model assessed as tumor growth inhibition at 10 mg/kg, po administered once daily for 25 days relative to control; type: functional; conditions: C57BL/6, MC-38, 600 h, time 25 day, read-out: TGI
[17] = Oral bioavailability in mouse; type: ADME, organism-based; conditions: in vivo
[18] = AUC (0 to t) in mouse at 1 mg/kg, iv; type: ADME, organism-based; design: dose 1 mg/kg, route iv; conditions: in vivo
[19] = Oral bioavailability in rat; type: ADME, organism-based; conditions: in vivo
[20] = Drug exposure in plasma of C57BL/6 mouse injected with mouse MC38 cells at 10 mg/kg, po measured 3 hrs post dose on day 25 in combination with anti-mouse PD1 monoclonal antibody at 5 mg/kg, ip by LC/MS analysis; type: ADME, organism-based, MC-38; conditions: time 25 day
[21] = Volume of distribution in rat at 1 mg/kg, iv; type: ADME, organism-based; conditions: in vivo
[22] = Half life in dog at 0.5 mg/kg, iv; type: ADME, organism-based, Canis lupus familiaris; conditions: in vivo
[23] = Drug exposure in tumor of C57BL/6 mouse injected with mouse MC38 cells at 10 mg/kg, po measured 3 hrs post dose on day 25 by LC/MS analysis; type: ADME, organism-based, Neoplasm, MC-38; conditions: time 25 day, read-out: Drug uptake
[24] = Effects of compound in IL-17 production in CD3/CD28-stimulated C57BL/6 mouse tumor lymphocytes assessed as increase in IL-17 production at 10 mg/kg by ELISA (Rvb= 19 +/- 5 pg/ml); type: functional, Lymphocyte
MC-38 [25] = test: Antitumor activity against mouse MC38 cells injected C57BL/6 mouse syngenic model assessed as tumor growth inhibition at 10 mg/kg, po administered once daily for 25 days in combination with anti-mouse PD-1 monoclonal antibody at 5 mg/kg, ip relative to control; type: functional; conditions: C57BL/6, MC-38, 600 h, time 25 day, read-out: TGI
[26] = Volume of distribution in rat at 2 mg/kg, po; type: ADME, organism-based; conditions: in vivo
[27] = Clearance in dog at 0.5 mg/kg, iv; type: ADME, organism-based, Canis lupus familiaris; conditions: in vivo
[28] = Half life in rat at 1 mg/kg, iv; type: ADME, organism-based; conditions: in vivo
[29] = Drug exposure in tumor of C57BL/6 mouse injected with mouse MC38 cells at 10 mg/kg, po measured 3 hrs post dose on day 25 in combination with anti-mouse PD1 monoclonal antibody at 5 mg/kg, ip by LC/MS analysis; type: ADME, organism-based, Neoplasm, MC-38; conditions: time 25 day, read-out: Drug uptake
[30] = AUC (0 to t) in dog at 0.5 mg/kg, iv; type: ADME, organism-based, Canis lupus familiaris; design: dose 0.5 mg/kg, route iv; conditions: in vivo
[31] = Half life in rat at 2 mg/kg, po; type: ADME, organism-based; conditions: in vivo
[32] = Volume of distribution in mouse at 2 mg/kg, po; type: ADME, organism-based; conditions: in vivo
[33] = Half life in mouse at 2 mg/kg, po; type: ADME, organism-based; conditions: in vivo
[34] = AUC (0 to t) in dog at 2 mg/kg, po; type: ADME, organism-based, Canis lupus familiaris; design: dose 2 mg/kg, route po; conditions: in vivo
[35] = Volume of distribution in dog at 2 mg/kg, po; type: ADME, organism-based, Canis lupus familiaris; conditions: in vivo
[36] = Effects of compound in IL-17 production in CD3/CD28-stimulated C57BL/6 mouse tumor lymphocytes assessed as increase in IL-17 production at 10 mg/kg in combination with anti-mouse PD1 monoclonal antibody at 5 mg/kg by ELISA (Rvb= 29 +/- 9 pg/ml); type: functional, Lymphocyte
[37] = Drug exposure in plasma of C57BL/6 mouse injected with mouse MC38 cells at 10 mg/kg, po measured 3 hrs post dose on day 25 by LC/MS analysis; type: ADME, organism-based, MC-38; conditions: time 25 day
[38] = AUC (0 to t) in rat at 1 mg/kg, iv; type: ADME, organism-based; design: dose 1 mg/kg, route iv; conditions: in vivo

CCS(=O)(=O)c1ccc([C@H](CO)NC(=O)c2ccc3c(c2)cc(Cc2ccc(Cl)cc2C(F)(F)F)n3CCF)cc1
bioavailability [1]: 84.2%
Activity (Mus musculus [2]): Non-Toxic
Activity (Mus musculus [3]): Non-Toxic
Activity [4]: 2455 pg/mL
Cmax [5]: 2080 ng/mL
Vd [6]: 0.654 L/kg
t1/2 [7]: 5.04 h
Activity [8]: 1217 pg/mL
AUC(0-t) [9]: 50600 ng·h/mL
clearance [10]: 16.2 mL/min/kg
Vd [11]: 0.877 L/kg
Cmax [12]: 3660 ng/mL
AUC(0-t) [13]: 618 ng·h/mL
half-life [14]: 11.8 h
Cmax [15]: 55.7 ng/mL
inhibition in vivo at 10 mg/kg (MC-38 [16]): 37%
bioavailability [17]: 31.7%
AUC(0-t) [18]: 79800 ng·h/mL
bioavailability [19]: 29.4%
concentration at 600 h [20]: 10800 ng/mL
Vd [21]: 3.65 L/kg
half-life [22]: 8.8 h
concentration at 600 h [23]: 2020 ng/mL
Activity [24]: 36 pg/mL
inhibition in vivo at 10 mg/kg (MC-38 [25]): 62%
Vd [26]: 25.7 L/kg
clearance [27]: 0.954 mL/min/kg
half-life [28]: 2.67 h
concentration at 600 h [29]: 2320 ng/mL
AUC(0-t) [30]: 8640 ng·h/mL
half-life [31]: 5.96 h
Vd [32]: 0.637 L/kg
half-life [33]: 11.2 h
AUC(0-t) [34]: 29100 ng·h/mL
Vd [35]: 0.873 L/kg
Activity [36]: 81 pg/mL
concentration at 600 h [37]: 9120 ng/mL
AUC(0-t) [38]: 1050 ng·h/mL
